Data on 1 compound can be found in paper PMC5826973 (Frontiers in Pharmacology, 2018).

Data set [1] concerns the target T1, CyPJ (Homo sapiens, UniProt Q9H2H8).
T1 construct: made in house
T1 sequence (Q9H2H8 1-161): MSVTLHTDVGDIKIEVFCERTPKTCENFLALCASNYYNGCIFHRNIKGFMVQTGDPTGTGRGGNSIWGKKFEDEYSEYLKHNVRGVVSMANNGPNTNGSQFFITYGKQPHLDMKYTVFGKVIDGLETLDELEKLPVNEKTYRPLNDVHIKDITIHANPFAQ
Description: Surface plasmon resonance (SPR) binding assay. Particulars: Biacore 3000, recombinant human CyPJ immobilized on CM5 chip, 20°C, compounds 0.3–10 μM. As for the experimental part:
The binding affinity of the selected compounds to CyPJ was measured by SPR with a Biacore 3000 instrument (Biacore AB Corporation, Uppsala, Sweden) as previously described ([Guo et al., 2005]; [Chen et al., 2007]). Briefly, recombinant human CyPJ protein was immobilized on an activated sensor chip via amine coupling. CyPJ protein (10 μM) was coupled to a CM5 sensor chip surface (a carboxymethylated dextran surface; CM5 chip from Biacore, Inc., Piscataway, NJ, United States) in a buffer containing 10 mM sodium acetate (pH 4.0) using standard amine coupling chemistry according to the manufacturer’s instructions. Flow cell 1 (FC-1) was used as the control surface and flow cell 2 (FC-2) contained 9000 resonance units (RU) of CyPJ (1 RU corresponds to 1 pg of protein per mm^2). The buffer stream was passed through FC-1 and FC-2 of the bi-channel at a flow rate of 40 μl/min. Compounds to be tested were purchased from SPECS (Netherlands). All chemicals were of the highest purity available, as certified by the vendor. All compounds were stocked in 100% dimethylsulfoxide at 10 mM and diluted at graded concentrations (0.3–10 μM) with HBS-EP buffer (0.01 M HEPES buffer, pH 7.4, containing 0.15 M NaCl, 3.4 mM EDTA, and 0.005% surfactant P20) containing 1% dimethylsulfoxide. The temperature of the instrument was set to 20°C, and the flow rate was set to 40 μl/min. Each compound (50 μl) was injected sequentially. NaOH (50 mM) was used to regenerate the surface of the CM5 chip. The 1:1 Langmuir binding model was used to determine the equilibrium dissociation constant (KD). For fast interactions, the steady-state model was used to determine KD values. All experiments were carried out in triplicate.

The target of data set [2] is T2, CyPJ PPIase (Homo sapiens, UniProt Q9H2H8).
T2 construct: made in house
T2 sequence (Q9H2H8 1-161): T1 sequence (Q9H2H8 1-161)
In words: α-chymotrypsin-coupled PPIase assay. The class given is biochemical. Particulars: read-out: Compound IC50 for PPIase. As for the experimental part: We used an α-chymotrypsin-coupled PPIase assay, where the substrate succinyl-Ala-Ala-Pro-Phe-p-nitroanilide (Suc-AAPF-pNA) is first converted to the trans conformation by PPIase, and can then be digested by α-chymotrypsin to release chromogenic p-nitroanilide; the latter compound is then monitored with a spectrometer. Briefly, the assay was performed under 8°C in a 100 μl system. The Suc-AAPF-pNA was dissolved in the […] containing 480 mM of LiCl (working concentration: 3.0 mM). The α-chymotrypsin was dissolved in 1 mM HCl (working concentration: […]). When assayed, each test compound was diluted in 94 μl of assay buffer (50 mM HEPES, 100 mM NaCl; pH 8.0 at 0°C), and then mixed with 2 μl of CyPJ solution (5 μM). […] Three independent experiments were performed for each test compound and the respective half maximal inhibitory concentration (IC50) was calculated with OriginPro 7.5 software (OriginLab, Northampton, MA, United States).
The inhibitory effect of each compounds was determined with a standard spectrophotometric method in chymotrypsin-coupled assays with different concentrations of peptide substrate. The rate constants for the cis–trans conversion were evaluated by fitting the data to the integrated first-order rate equation through nonlinear least-square analysis.

In data set [3] the test system is SK-HEP1 HCC cells. In words: MTT-based cell proliferation assay, SK-HEP1. Set-up: species or system human. Particulars: Homo sapiens, SK-HEP1, Table 2, 48 h. As for the experimental part: (§1) Human HCC cells SK-HEP1 and QGY; breast cancer cells HCC1954, BT474, and MDA-MB468; ovarian cancer cells SKOV3; and prostate cancer cells PC3 and LNCaP were purchased from the Cell Bank of Chinese Academy of Sciences (Shanghai, China), and cultured in T75 flasks with complete DMEM or RPMI 1640 medium (GIBCO, Invitrogen, Gaithersburg, CA, United States) supplemented with 10% FBS (Hyclone, New Zealand), and 1% penicillin/streptomycin (Solarbio, Beijing, China) at 37°C in a humidified atmosphere containing 5% CO2.
(§2) Cell proliferation was determined using methylthiazolyl diphenyl-tetrazolium bromide assay (MTT; Sigma–Aldrich). The cells were seeded onto 96-well plates in a total volume of 150 μl at a density of 3.5 × 10^4 cells/well. […] To avoid the effect of the solvent, the concentration of DMSO was less than 0.1% (v/v) in all experiments. After incubation at 37°C for 48 h, 10 μl of MTT solution (5 mg/ml) was added and continued to incubate for 4 h. Following removal of medium containing MTT, 200 μl of DMSO was added to dissolve the formazan crystals formed by live cells. Solution absorbance was measured at 490 nm with an absorbance microplate reader (BioTek, Winooski, VT, United States). The assay was repeated six times. The IC50 value was determined from plot of % viability against the dose of compounds added.

Data set [4] has as its system QGY HCC cells. Description: MTT-based cell proliferation assay, QGY. Set-up: species or system human. The conditions noted are these: Homo sapiens, Table 2, 48 h. As for the experimental part: as §1, §2
Data set [5] is described as follows: Blood serum level after intraperitoneal administration. Particulars: blood serum (unpublished data). The format is in vivo.
The test system of data set [6] is xenograft mouse tumor model. In words: In vivo xenograft mouse tumor model. The conditions noted are these: xenograft mouse tumor model (unpublished data).

`CN(C)C(=O)Nc1ccc2nc(-c3ccco3)c(-c3ccco3)nc2c1` [ZX-J-19]: the Kd in data set [1] came out at 16.7 µM. Also, the IC50 in data set [2] stood at 15.949 ± 0.012 µM; in data set [3] it was 40.44 ± 0.033 µM; in data set [4], 52.438 ± 0.019 µM. Also, in data set [5], the “time until absorbed and accumulated in blood serum” value is on record as no more than 10 min. Also, the “time until declined and diminished to control levels” value in data set [5] is on record as 8 h. The “antitumor activity in vivo” value in data set [6] was “poor antitumor activity”.
